Data from US20110218188A1, “SUBSTITUTED (PYRIDYL)-AZINYLAMINE DERIVATIVES AS FUNGICIDES” (priority 2008, published 2011).
Marks after values point to notes of the source that are not given here.

Test: Measurement of logP values by HPLC on reversed phase columns (EEC directive 79/831 Annex V.A8)
Format: physicochemical

| logP (pH 2.7) | SMILES | also measured |
| --- | --- | --- |
| 3.19 | CN(CC(F)F)C(=O)c1cc(-c2ncnc(Nc3ccc(Cl)c(C(F)F)c3)n2)ccn1 [Example B392] | – |
| 2.25 | CN(C)C(=O)c1cc(-c2ncnc(Nc3ccc(F)c(C(F)F)c3)n2)ccn1 [Example B393] | – |
| 3.15 | CC(C)CN(C)C(=O)c1cc(-c2ncnc(Nc3ccc(F)c(C(F)F)c3)n2)ccn1 [Example B395] | – |
| 2.78 | CC(C)N(C)C(=O)c1cc(-c2ncnc(Nc3ccc(F)c(C(F)F)c3)n2)ccn1 [Example B396] | – |
| 2.37 | CN(CCC#N)C(=O)c1cc(-c2ncnc(Nc3ccc(F)c(C(F)F)c3)n2)ccn1 [Example B397] | – |
| 2.84 | CN(CC(F)F)C(=O)c1cc(-c2ncnc(Nc3ccc(F)c(C(F)F)c3)n2)ccn1 [Example B398] | – |
| 2.44 | CCN(C)C(=O)c1cc(-c2ncnc(Nc3cccc(C(F)F)c3)n2)ccn1 [Example B400] | – |
| 2.37 | COCC(=O)N(c1ccccc1)c1ncnc(-c2ccnc(C(=O)N(C)CC3CC3)c2)n1 [Example B401] | – |
| – | C#CCN(c1ccccc1)c1ncnc(-c2ccnc(C(=O)N(C)CC3CC3)c2)n1 [Example B402, N-(cyclopropylmethyl)-N-methyl-4-{4-[phenyl(prop-2-yn-1-yl)amino]-1,3,5-triazin-2-yl}pyridine-2-carboxamide] | chromatographic logP (pH 2.7): 2.98 |
| – | COc1ccc(Nc2ncnc(-c3ccnc(C(=O)N4CCCC4)c3)n2)cn1 [Example C1] | logP (pH 7.8): 1.99^[c] |
| – | COc1ccc(Nc2ncnc(-c3ccnc(C(=O)N4CCCCC4)c3)n2)cn1 [Example C2, (4-{4-[(6-methoxypyridin-3-yl)amino]-1,3,5-triazin-2-yl}pyridin-2-yl)(piperidin-1-yl)methanone] | chromatographic logP (pH 7.8): 2.14 |
| – | CCCN(CCC)C(=O)c1cc(-c2ncnc(Nc3ccc(OC)nc3)n2)ccn1 [Example C3] | logP (pH 7.8): 2.77^[c] |
| – | CCN(CC)C(=O)c1cc(-c2ncnc(Nc3ccc(OC)nc3)n2)ccn1 [Example C4] | logP (pH 7.8): 2.11^[c] |
| – | CCCN(C)C(=O)c1cc(-c2ncnc(Nc3ccc(OC)nc3)n2)ccn1 [Example C5] | logP (pH 7.8): 2.11^[c] |
| 2.2 | COc1ccc(Nc2ncnc(-c3ccnc(C(=O)N(C)CC4CC4)c3)n2)cn1 [Example C6] | – |
| – | C=CCN(CC=C)C(=O)c1cc(-c2ncnc(Nc3ccc(OC)nc3)n2)ccn1 [Example C7] | logP (pH 7.8): 2.58^[c] |
| 1.57 | COc1ccc(Nc2ncnc(-c3ccnc(C(=O)N(C)C)c3)n2)cn1 [Example C8] | – |
| 1.82 | CCN(C)C(=O)c1cc(-c2ncnc(Nc3ccc(OC)nc3)n2)ccn1 [Example C10] | – |
| 2.78 | CCCCN(CC)C(=O)c1cc(-c2ncnc(Nc3ccc(OC)nc3)n2)ccn1 [Example C11] | – |

| logP (pH 2.7) | SMILES | also measured |
| --- | --- | --- |
| 1.89 | CN(CCC#N)C(=O)c1cc(-c2ncnc(Nc3ccsc3)n2)ccn1 [Example C12] | – |
| 2.44 | CCN(CC)C(=O)c1cc(-c2ncnc(Nc3ccsc3)n2)ccn1 [Example C13] | – |
| 2.45 | CCCN(C)C(=O)c1cc(-c2ncnc(Nc3ccsc3)n2)ccn1 [Example C14] | – |
| 2.13 | CCN(C)C(=O)c1cc(-c2ncnc(Nc3ccsc3)n2)ccn1 [Example C17] | – |
| 1.19 | CC(C)CN(C)C(=O)c1cc(-c2ncnc(Nc3ccncc3)n2)ccn1 [Example C18] | – |
| 1.86 | CN(C)C(=O)c1cc(-c2ncnc(Nc3ccsc3)n2)ccn1 [Example C19] | – |
| 2.37 | CC(C)N(C)C(=O)c1cc(-c2ncnc(Nc3ccsc3)n2)ccn1 [Example C20] | – |
| 2.46 | CN(CC(F)F)C(=O)c1cc(-c2ncnc(Nc3ccsc3)n2)ccn1 [Example C21] | – |
| 3.02 | CCN(CC)C(=S)c1cc(-c2ncnc(Nc3ccsc3)n2)ccn1 [Example C22] | – |
| 2.68 | CCN(C)C(=S)c1cc(-c2ncnc(Nc3ccsc3)n2)ccn1 [Example C23] | – |
| – | COC(=O)c1cc(-c2ncnc(Nc3ccsc3)n2)ccn1 [Example C24, methyl 4-[4-(3-thienylamino)-1,3,5-triazin-2-yl]pyridine-2-carboxylate] | chromatographic logP (pH 2.7): 2.23 |
| 2.02 | COC(=O)c1cc(-c2ncnc(Nc3ccnc(Cl)c3)n2)ccn1 [Example C25] | – |
| – | O=C(O)c1cc(-c2ncnc(Nc3ccsc3)n2)ccn1 [Example C28, 4-[4-(3-thienylamino)-1,3,5-triazin-2-yl]pyridine-2-carboxylic acid] | chromatographic logP (pH 2.7): 1.62 |
| 1.78 | CC(=O)N(c1ccsc1)c1ncnc(-c2ccnc(C(=O)N(C)CCC#N)c2)n1 [Example C29] | – |
| – | CON(C)C(=O)c1cc(-c2ncnc(Nc3ccsc3)n2)ccn1 [Example C30, N-methoxy-N-methyl-4-[4-(3-thienylamino)-1,3,5-triazin-2-yl]pyridine-2-carboxamide] | chromatographic logP (pH 2.7): 2.05 |
| 2.59 | CCON(CC)C(=O)c1cc(-c2ncnc(Nc3ccsc3)n2)ccn1 [Example C31] | – |
| – | CCN(OC)C(=O)c1cc(-c2ncnc(Nc3ccsc3)n2)ccn1 [Example C32] | logP (pH 7.8): 2.33^[c] |
| 2.26 | CCON(C)C(=O)c1cc(-c2ncnc(Nc3ccsc3)n2)ccn1 [Example C33] | – |

| SMILES | logP (pH 2.7) | also measured |
| --- | --- | --- |
| CCN(C)C(=O)c1cc(-c2ncnc(Nc3ccc(F)c(C(F)F)c3)n2)ccn1 [Example B394] | 2.55 | – |
| CCCN(C)C(=O)c1cc(-c2ncnc(Nc3ccc(F)c(C(F)F)c3)n2)ccn1 [Example B399] | 2.86 | – |
| COc1ccc(Nc2ncnc(-c3ccnc(C(=O)N(C)CC(C)C)c3)n2)cn1 [Example C9] | 2.37 | – |
| CN(CC1CC1)C(=O)c1cc(-c2ncnc(Nc3ccsc3)n2)ccn1 [Example C15] | 2.53 | – |
| CC(C)CN(C)C(=O)c1cc(-c2ncnc(Nc3ccsc3)n2)ccn1 [Example C16] | 2.63 | – |
